The source of these data is ChEMBL document CHEMBL1143484, “Discovery of 1-amino-4-phenylcyclohexane-1-carboxylic acid and its influence on agonist selectivity between human melanocortin-4 and -1 receptors in linear pentapeptides” (Bioorg Med Chem Lett, 2005).

Non-standard residues stand in square brackets, D forms with d. Residues, ends and D or L forms follow the SMILES beside them. *: point of attachment. Butyryl = CCCC(=O)*

Assay [1] addresses T1, Melanocyte-stimulating hormone receptor (Homo sapiens, UniProt Q01726). The experiment in a line: Concentration (50 uM) required for cAMP accumulation mediated by human Melanocortin 1 receptor in HEK293 cells. The format is functional, cell-based.
Target sequence in this assay (Q01726 whole entry, looked up): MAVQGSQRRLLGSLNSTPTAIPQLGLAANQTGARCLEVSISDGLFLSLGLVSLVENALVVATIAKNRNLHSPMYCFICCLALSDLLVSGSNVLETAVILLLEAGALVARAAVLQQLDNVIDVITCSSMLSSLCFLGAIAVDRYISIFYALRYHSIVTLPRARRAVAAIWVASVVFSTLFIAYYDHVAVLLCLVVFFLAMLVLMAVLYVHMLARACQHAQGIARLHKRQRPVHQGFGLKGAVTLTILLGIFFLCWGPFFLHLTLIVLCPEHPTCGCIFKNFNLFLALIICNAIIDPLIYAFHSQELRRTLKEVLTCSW
Assay [2] concerns the target T2, Melanocortin receptor 4 (Homo sapiens, UniProt P32245). The experiment in a line: Effective concentration for cAMP accumulation mediated by human Melanocortin 4 receptor in HEK293 cells. The format is functional, cell-based.
Assay [3] concerns the target Melanocortin receptor 3 (Homo sapiens) (UniProt P41968). The experiment in a line: Concentration (50 uM) required for cAMP accumulation mediated by human Melanocortin 3 receptor in HEK293 cells. In kind it is functional, cell-based.
Assay [4] concerns the target Melanocortin receptor 5 (Homo sapiens) (UniProt P33032). The experiment in a line: Concentration (50 uM) required for cAMP accumulation mediated by human Melanocortin 5 receptor in HEK293 cells. The format is functional, cell-based.
Assay [5] concerns the target T1, Melanocyte-stimulating hormone receptor. Nature of the assay: Effective concentration required for cAMP accumulation mediated by human Melanocortin 1 receptor in HEK293 cells. In kind it is functional, cell-based.
Target sequence in this assay (Q01726 whole entry): as the sequence (Q01726 whole entry, looked up) above
In assay [6] the target is T2, Melanocortin receptor 4. The experiment in a line: Concentration (50 uM) required for cAMP accumulation mediated by human Melanocortin 4 receptor in HEK293 cells. The format is functional, cell-based.
The target of assay [7] is T1, Melanocyte-stimulating hormone receptor. The experiment in a line: Binding affinity towards human Melanocortin 1 receptor using radiolabeled NDP-MSH displacement.
Target sequence in this assay (Q01726 whole entry): as the sequence (Q01726 whole entry, looked up) above
Assay [8] addresses T2, Melanocortin receptor 4. Nature of the assay: Binding affinity towards human Melanocortin 4 receptor using radiolabeled NDP-MSH displacement.

T2 sequence (P32245 whole entry): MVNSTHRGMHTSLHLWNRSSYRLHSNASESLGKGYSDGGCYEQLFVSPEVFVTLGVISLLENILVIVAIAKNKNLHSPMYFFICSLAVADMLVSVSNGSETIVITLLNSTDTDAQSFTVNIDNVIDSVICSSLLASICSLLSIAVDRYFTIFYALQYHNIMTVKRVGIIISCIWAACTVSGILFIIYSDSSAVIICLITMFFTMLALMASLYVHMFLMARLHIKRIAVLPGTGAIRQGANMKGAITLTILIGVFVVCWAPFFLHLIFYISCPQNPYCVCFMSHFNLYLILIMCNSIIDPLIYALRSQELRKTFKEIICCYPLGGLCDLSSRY
Sequence of Melanocortin receptor 5 (Homo sapiens) (P33032 whole entry): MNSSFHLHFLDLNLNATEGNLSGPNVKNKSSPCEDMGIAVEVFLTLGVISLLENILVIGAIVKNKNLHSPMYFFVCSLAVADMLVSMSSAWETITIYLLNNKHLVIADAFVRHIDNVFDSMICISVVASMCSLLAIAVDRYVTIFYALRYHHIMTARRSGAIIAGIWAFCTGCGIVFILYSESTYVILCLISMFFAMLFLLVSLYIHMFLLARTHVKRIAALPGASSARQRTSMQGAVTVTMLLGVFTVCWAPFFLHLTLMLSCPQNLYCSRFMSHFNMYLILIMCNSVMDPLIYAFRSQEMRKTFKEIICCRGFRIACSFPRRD
Sequence of Melanocortin receptor 3 (Homo sapiens) (P41968 whole entry): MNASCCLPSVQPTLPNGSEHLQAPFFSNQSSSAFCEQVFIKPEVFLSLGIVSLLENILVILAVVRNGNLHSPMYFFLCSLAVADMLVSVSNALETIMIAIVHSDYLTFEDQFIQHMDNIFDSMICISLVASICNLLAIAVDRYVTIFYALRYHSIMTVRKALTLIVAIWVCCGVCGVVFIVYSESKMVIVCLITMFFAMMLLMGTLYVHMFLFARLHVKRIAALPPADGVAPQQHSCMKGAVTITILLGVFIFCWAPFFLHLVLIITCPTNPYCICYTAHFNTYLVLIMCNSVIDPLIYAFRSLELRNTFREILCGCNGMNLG

In assay [1], `CCCCC(=O)N[C@]1(C(=O)NC(Cc2ccccc2)C(=O)NC(CCCN=C(N)N)C(=O)N[C@@H](Cc2c[nH]c3ccccc23)C(=O)NCC(N)=O)CC[C@H](c2ccc(OC)cc2)CC1` (single isomer, unassigned) registered a cAMP accumulation at 50 uM of 0%. The molecule further had an EC50 on Melanocortin receptor 4 [2] of 0.009 µM.

In turn, `NC(=O)CNC(=O)[C@H](Cc1c[nH]c2ccccc12)NC(=O)[C@H](CCCN=C(N)N)NC(=O)[C@@H](Cc1ccccc1)NC(=O)[C@H]1CC[C@H](c2ccccc2)CC1` displayed a cAMP accumulation at 50 uM in assay [1] of 60%. Moreover, the 50% effective concentration (EC50) on Melanocortin receptor 4 [2] amounted to 0.55 µM.

Consider `CCCC(=O)N[C@@H](Cc1c[nH]cn1)C(=O)N[C@H](Cc1ccccc1)C(=O)N[C@@H](CCCN=C(N)N)C(=O)N[C@@H](Cc1c[nH]c2ccccc12)C(=O)NCC(N)=O` (Butyryl-H[dF]RWG-NH2), for which the Accumulation in assay [3] and in assay [4] was 0% throughout.

For `CCCCC(=O)N[C@]1(C(=O)NC(Cc2ccccc2)C(=O)NC(CCCN=C(N)N)C(=O)N[C@@H](Cc2c[nH]c3ccccc23)C(=O)NCC(N)=O)CC[C@H](c2ccc(C)cc2)CC1` (single isomer, unassigned), the cAMP accumulation at 50 uM in assay [1] stood at 55%. This molecule displayed an EC50 on Melanocortin receptor 4 [2] of 0.003 µM.

With `CCCCC(=O)N[C@]1(C(=O)N[C@H](Cc2ccccc2)C(=O)N[C@@H](CCCNC(=N)N)C(=O)N[C@@H](Cc2c[nH]c3ccccc23)C(N)=O)CC[C@H](c2ccccc2)CC1`, the EC50 worked out at 1.3 µM in assay [5] and 0.13 µM at Melanocortin receptor 4 [2].

In turn, `CCCCC(=O)N[C@]1(C(=O)N[C@H](Cc2ccccc2)C(=O)N[C@@H](CCCN=C(N)N)C(=O)N[C@@H](Cc2c[nH]c3ccccc23)C(=O)NCC(N)=O)CC[C@H](c2ccc(OC(C)C)cc2)CC1` yielded a cAMP accumulation at 50 uM in assay [1] of 60%.

For the molecule `CCCCC(=O)N[C@]1(C(=O)N[C@H](Cc2ccccc2)C(=O)N[C@@H](CCCN=C(N)N)C(=O)N[C@@H](Cc2c[nH]c3ccccc23)C(=O)NCC(N)=O)CC[C@H](c2cc(CCC)cc(CCC)c2)CC1`, the EC50 in assay [5] was found to be 0.21 µM. Besides, the Accumulation on Melanocortin receptor 4 [6] stood at 60%.

Take `CCCCC(=O)N[C@@]1(C(=O)N[C@H](Cc2ccccc2)C(=O)N[C@@H](CCCN=C(N)N)C(=O)N[C@@H](Cc2c[nH]c3ccccc23)C(=O)NCC(N)=O)CCc2ccccc2C1`: the figures for the EC50 (in assay [5]; on Melanocortin receptor 4 [2]) were 0.83 µM and 0.045 µM, respectively.

For `CCCCC(=O)N[C@]1(C(=O)N[C@H](Cc2ccccc2)C(=O)N[C@@H](CCCNC(=N)N)C(=O)N[C@@H](Cc2c[nH]c3ccccc23)C(=O)NCC(N)=O)CC[C@H](c2ccc(Cl)cc2)CC1`, a half-maximal effect on Melanocortin receptor 4 [2] (EC50) was put at 0.004 µM.

With `CCCCC(=O)N[C@]1(C(=O)N[C@H](Cc2ccccc2)C(=O)N[C@@H](CCCNC(=N)N)C(=O)N[C@@H](Cc2c[nH]c3ccccc23)C(=O)NCC(N)=O)CC[C@H](c2cccc(OC)c2)CC1`, the results for the EC50 (in assay [5]; at Melanocortin receptor 4 [2]) were 0.69 µM and 0.002 µM, respectively.

On to `CCCCC(=O)N[C@]1(C(=O)N[C@H](Cc2ccccc2)C(=O)N[C@@H](CCCNC(=N)N)C(=O)N[C@@H](Cc2c[nH]c3ccccc23)C(=O)NCC(N)=O)CC[C@H](c2ccc(OCC)cc2)CC1`, for which the results for the 50% inhibitory concentration (IC50) (in assay [7]; at Melanocortin receptor 4 [8]) were 4.7 µM and 0.043 µM, respectively. The same molecule returned a concentration giving a half-maximal response (EC50) on Melanocortin receptor 4 [2] of 0.013 µM.

As to `CCCCC(=O)N[C@]1(C(=O)NC(Cc2ccccc2)C(=O)NC(CCCN=C(N)N)C(=O)N[C@@H](Cc2c[nH]c3ccccc23)C(=O)NCC(N)=O)CC[C@@H](c2ccccc2)CC1` (single isomer, unassigned), the EC50 in assay [5] was 1.3 µM; at Melanocortin receptor 4 [2], 0.088 µM.

As for `CCCCC(=O)N[C@]1(C(=O)N[C@H](Cc2ccccc2)C(=O)N[C@@H](CCCNC(=N)N)C(=O)N[C@@H](Cc2c[nH]c3ccccc23)C(=O)NCC(N)=O)CC[C@H](c2ccccc2)CC1`, the half-maximal inhibitory concentration (IC50) in assay [7] came out at 7.1 µM; at Melanocortin receptor 4 [8], 0.013 µM. Moreover, the EC50 on Melanocortin receptor 4 [2] was found to be 0.002 µM.

In the case of `CCCCC(=O)N[C@]1(C(=O)N[C@H](Cc2ccccc2)C(=O)N[C@@H](CCCN=C(N)N)C(=O)N[C@@H](Cc2c[nH]c3ccccc23)C(=O)NCC(N)=O)CC[C@H](c2ccc(Cl)cc2)CC1`, in assay [1], the cAMP accumulation at 50 uM came out at 45%.

In assay [1], `CCCCC(=O)N[C@]1(C(=O)N[C@H](Cc2ccccc2)C(=O)N[C@@H](CCCN=C(N)N)C(=O)N[C@@H](Cc2c[nH]c3ccccc23)C(=O)NCC(N)=O)CC[C@H](c2ccccc2)CC1` yielded a cAMP accumulation at 50 uM of 25%. Also, the Accumulation in assay [3] is 57%; in assay [4], 36%.

Consider `CCCCC(=O)N[C@]1(C(=O)N[C@H](Cc2ccccc2)C(=O)N[C@@H](CCCN=C(N)N)C(=O)N[C@@H](Cc2c[nH]c3ccccc23)C(=O)NCC(N)=O)CC[C@H](c2ccc(OCC)cc2)CC1`, for which, in assay [1], the cAMP accumulation at 50 uM was 0%. Moreover, the values for the Accumulation in assay [3] and in assay [4] were 28% and 46%, respectively.

`CCCCC(=O)N[C@]1(C(=O)N[C@H](Cc2ccccc2)C(=O)N[C@@H](CCCNC(=N)N)C(=O)N[C@@H](Cc2c[nH]c3ccccc23)C(=O)NCC(N)=O)CC[C@H](c2ccc(OC(C)C)cc2)CC1` came in with an EC50 on Melanocortin receptor 4 [2] of 0.006 µM.

In the case of `CCCCC(=O)N[C@]1(C(=O)N[C@H](Cc2ccccc2)C(=O)N[C@@H](CCCNC(=N)N)C(=O)N[C@@H](Cc2c[nH]c3ccccc23)C(=O)NCC(N)=O)CC[C@H](c2ccc(O)cc2)CC1`, the results for the 50% effective concentration (EC50) (in assay [5]; at Melanocortin receptor 4 [2]) were 1.3 µM and 0.005 µM, respectively.
